From patent publication US10550113B2, “2-phenyl-3H-imidazo[4,5-B]pyridine derivates useful as inhibitors of mammalian tyrosine kinase ROR1 activity” (Kancera AB, priority 2015, dated 2020)
pIC50: −log10 of the molar value.

Key:
[1] = test system: PBMC from CLL patients; assay: CellTiter-Blue cell viability assay, cell toxicity in PBMC from CLL patients; type: cell-based; details: Homo sapiens, 50 000 cells/well, cultured 24, 48 and 72 h (time of the IC50 not stated), % cytotoxicity vs 0.2% DMSO
Description: (§1) Method for Measurement of Cell Toxicity
(§2) The CellTiter-Blue® Cell Viability Assay provides a homogeneous, fluorometric method for estimating the number of viable cells present in multi-well plates. The assay uses the indicator dye resazurin to measure the metabolic capacity of cells. Viable cells retain the ability to reduce resazurin into resorufin, which is highly fluorescent.
(§3) Stock solutions (10 or 100 mM in DMSO) of compounds were serially diluted 1:2 in 11 concentrations and 25 nL/well (100 mM stock) or 50 nL/well (10 mM stock) were acoustically dispensed in assay plates with an EDC acoustic dispenser. Final starting concentration in the assay was 20 μM (0.2% DMSO) or 100 μM (0.1% DMSO) for test compounds.
(§4) Peripheral blood mononuclear cells (PBMC) from CLL patients or healthy volunteers were seeded in assay plates (384-well black/clear, Greiner #781091) pre-dispensed with compounds, 25 μL/well, and cultured for 24, 48 and 72 h. The cell concentration was 50 000 cells/well for PBMC from CLL patients or healthy volunteers. After 24, 48 and 72 h culture, Celltiter Blue reagent was added (5 μL/well) and the plates were incubated for 2 h. The plates were read in an Envision fluorescence reader (PerkinElmer) with Ex544 nm/Em590 nm. Results were calculated as % cytotoxicity compared to background (cells treated with 0.2% DMSO).
(§5) Thus, IC50 values for cell toxicity in PBMC from CLL patients as well as healthy volunteers for some compounds of the invention are shown in Table 3.

[2] = CellTiter-Blue cell viability assay, cell toxicity in PBMC from healthy volunteers; type: cell-based; details: human, 50 000 cells/well, cultured 24, 48 and 72 h (time of the IC50 not stated), % cytotoxicity vs 0.2% DMSO
Description: as §1, §2, §3, §4, §5

| Compound | pIC50 [1] | pIC50 [2] |
| --- | --- | --- |
| CN(C)CCNC(=O)COc1ccc(-c2nc3c(N[C@H]4CCN(Cc5ccccc5)C4)c(Cl)cnc3[nH]2)cc1 [Example 2, 2-[4-(7-{[(3S)-1-benzylpyrrolidin-3-yl]amino}-6-chloro-3H-imidazo[4,5-b]pyridin-2-yl)phenoxy]-N-[2-(dimethylamino)ethyl]acetamide] | 5.89 | 4.86 |
| CN(C)CCNC(=O)COc1ccc(-c2nc3c(NC4CCN(CCc5ccccc5)CC4)c(Cl)cnc3[nH]2)cc1 [Example 3, 2-[4-(6-chloro-7-{[1-(2-phenylethyl)piperidin-4-yl]amino}-3H-imidazo[4,5-b]pyridin-2-yl)phenoxy]-N-[2-(dimethylamino)ethyl]acetamide] | 5.92 | 5.00 |
| CNC(=O)COc1ccc(-c2nc3c(NC4CCN(Cc5ccccc5)CC4)c(Cl)cnc3[nH]2)cc1 [Example 11, 2-(4-{7-[(1-benzylpiperidin-4-yl)amino]-6-chloro-3H-imidazo[4,5-b]pyridin-2-yl}phenoxy)-N-methylacetamide] | 6.36 | 4.83 |
| CN(C)CCNC(=O)COc1ccc(-c2nc3c(NC4CCN(Cc5ccsc5)CC4)c(Cl)cnc3[nH]2)cc1 [Example 15, 2-[4-(6-chloro-7-{[1-(thiophen-3-ylmethyl)piperidin-4-yl]amino}-3H-imidazo[4,5-b]pyridin-2-yl)phenoxy]-N-[2-(dimethylamino)ethyl]acetamide] | 6.10 | 4.86 |
| CNC(=O)COc1ccc(-c2nc3c(N(C)C4CCN(Cc5ccccc5)CC4)c(Cl)cnc3[nH]2)cc1 [Example 19, 2-(4-{7-[(1-benzylpiperidin-4-yl)(methyl)amino]-6-chloro-3H-imidazo[4,5-b]pyridin-2-yl}phenoxy)-N-methylacetamide] | 5.49 | < 4.70 |
| Cc1ccc(CN2CCC(Nc3c(Cl)cnc4[nH]c(-c5ccc(OCC(=O)NCC(C)(C)N(C)C)cc5)nc34)CC2)cc1 [Example 27, 2-[4-(6-chloro-7-{[1-(4-methylbenzyl)piperidin-4-yl]amino}-3H-imidazo[4,5-b]pyridin-2-yl)phenoxy]-N-[2-(dimethylamino)-2-methylpropyl]acetamide] | 5.85 | 4.85 |
| CNC(=O)COc1ccc(-c2nc3c(N[C@H]4CCN(Cc5ccc(F)c(F)c5)C4)c(Cl)cnc3[nH]2)cc1 [Example 34, 2-[4-(6-chloro-7-{[(3S)-1-(3,4-difluorobenzyl)pyrrolidin-3-yl]amino}-3H-imidazo[4,5-b]pyridin-2-yl)phenoxy]-N-methylacetamide] | 5.51 | 4.75 |
| CNC(=O)COc1ccc(-c2nc3c(N[C@H]4CCN(Cc5ccc(OC)cc5)C4)c(Cl)cnc3[nH]2)cc1 [Example 43, 2-[4-(6-chloro-7-{[(3S)-1-(4-methoxybenzyl)pyrrolidin-3-yl]amino}-3H-imidazo[4,5-b]pyridin-2-yl)phenoxy]-N-methylacetamide] | 5.76 | < 4.70 |
| CNC(=O)COc1ccc(-c2nc3c(NC4CCN(C5CCCCC5)CC4)c(Cl)cnc3[nH]2)cc1 [Example 56, 2-(4-{6-chloro-7-[(1-cyclohexylpiperidin-4-yl)amino]-3H-imidazo[4,5-b]pyridin-2-yl}phenoxy)-N-methylacetamide] | 6.43 | < 4.70 |
| CN(C)C(=O)COc1ccc(-c2nc3c(N[C@H]4CCN(Cc5ccccc5)C4)c(Cl)cnc3[nH]2)cc1 [Example 64, 2-[4-(7-{[(3S)-1-benzylpyrrolidin-3-yl]amino}-6-chloro-3H-imidazo[4,5-b]pyridin-2-yl)phenoxy]-N,N-dimethylacetamide] | 6.05 | 4.86 |
| CNC(=O)COc1ccc(-c2nc3c(NC4CCN(Cc5ccncc5)CC4)c(Cl)cnc3[nH]2)cc1 [Example 71, 2-[4-(6-chloro-7-{[1-(pyridin-4-ylmethyl)piperidin-4-yl]amino}-3H-imidazo[4,5-b]pyridin-2-yl)phenoxy]-N-methylacetamide] | 5.72 | < 4.70 |
| CNC(=O)COc1ccc(-c2nc3c(NC4CCN(Cc5ccc(NC(C)=O)cc5)CC4)c(Cl)cnc3[nH]2)cc1 [Example 75, 2-[4-(7-{[1-(4-acetamidobenzyl)piperidin-4-yl]amino}-6-chloro-3H-imidazo[4,5-b]pyridin-2-yl)phenoxy]-N-methylacetamide] | 5.95 | < 4.70 |
| CNC(=O)COc1ccc(-c2nc3c(NC4CCN(Cc5ccc(C)cc5)CC4)c(Cl)cnc3[nH]2)cc1 [Example 82, 2-[4-(6-chloro-7-{[1-(4-methylbeiizyl)piperidin-4-yl]amino}-3H-imidazo[4,5-b]pyridin-2-yl)phenoxy]-N-methylacetamide] | 6.32 | < 4.70 |
| CNC(=O)COc1ccc(-c2nc3c(NC4CCN(CCOc5ccccc5)CC4)c(Cl)cnc3[nH]2)cc1 [Example 96, 2-[4-(6-chloro-7-{[1-(2-phenoxyethyl)piperidin-4-yl]amino}-3H-imidazo[4,5-b]pyridin-2-yl)phenoxy]-N-methylacetamide] | 6.51 | 4.87 |
| CNC(=O)COc1ccc(-c2nc3c(NC4CCN(Cc5ccc(-n6cncn6)cc5)CC4)c(Cl)cnc3[nH]2)cc1 [Example 99, 2-{4-[6-chloro-7-({1-[4-(1H-1,2,4-triazol-1-yl)benzyl]piperidin-4-yl}amino)-3H-imidazo[4,5-b]pyridin-2-yl]phenoxy}-N-methylacetamide] | 6.57 | < 4.70 |
| CNC(=O)COc1cccc(-c2nc3c(NC4CCN(C)CC4)c(Cl)cnc3[nH]2)c1 [Example 117, 2-(3-{6-chloro-7-[(1-methylpiperidin-4-yl)amino]-3H-imidazo[4,5-b]pyridin-2-yl}phenoxy)-N-methylacetamide] | 6.49 | < 4.70 |
| CCN1CC[C@H](Nc2c(Cl)cnc3[nH]c(-c4ccc(OCC(=O)NC)cc4)nc23)C1 [Example 132, 2-[4-(6-chloro-7-{[(3S)-1-ethylpyrrolidin-3-yl]amino}-3H-imidazo[4,5-b]pyridin-2-yl)phenoxy]-N-methylacetamide] | 6.07 | < 4.70 |
| CN1CCC(Nc2c(Cl)cnc3[nH]c(-c4ccc(OCC(=O)NCCC5CCOCC5)cc4)nc23)CC1 [Example 147, 2-(4-{6-chloro-7-[(1-methylpiperidin-4-yl)amino]-3H-imidazo[4,5-b]pyridin-2-yl}phenoxy)-N-[2-(tetrahydro-2H-pyran-4-yl)ethyl]acetamide] | 6.85 | < 4.70 |
| CNC(=O)COc1ccc(-c2nc3c(NC4CCN(C)CC4)c(Br)cnc3[nH]2)c(C)c1 [Example 159, 2-(4-{6-bromo-7-[(1-methylpiperidin-4-yl)amino]-3H-imidazo[4,5-b]pyridin-2-yl}-3-methylphenoxy)-N-methylacetamide] | 6.51 | < 4.70 |
| CNC(=O)COc1ccc(-c2nc3c(NC4CCN(C)CC4)c(Cl)cnc3[nH]2)cc1OC [Example 168, 2-(4-{6-chloro-7-[(1-methylpiperidin-4-yl)amino]-3H-imidazo[4,5-b]pyridin-2-yl}-2-methoxyphenoxy)-N-methylacetamide] | 6.60 | < 4.70 |
| CNC(=O)COc1ccc(-c2nc3c(NC4CCN(C)CC4)c(Br)cnc3[nH]2)cc1F [Example 184, 2-(4-{6-bromo-7-[(1-methylpiperidin-4-yl)amino]-3H-imidazo[4,5-b]pyridin-2-yl}-2-fluorophenoxy)-N-methylacetamide] | 6.96 | < 4.70 |
| CNC(=O)Cc1ccc(-c2nc3c(NC4CCN(C)CC4)c(Cl)cnc3[nH]2)cc1 [Example 232, 2-(4-{6-chloro-7-[(1-methylpiperidin-4-yl)amino]-3H-imidazo[4,5-b]pyridin-2-yl}phenyl)-N-methylacetamide] | 6.24 | < 4.70 |
| CN1CCC(Nc2c(Br)cnc3[nH]c(-c4ccc(OCC(=O)NC5CCCC5)cc4)nc23)CC1 [Example 259, 2-(4-{6-bromo-7-[(1-methylpiperidin-4-yl)amino]-3H-imidazo[4,5-b]pyridin-2-yl}phenoxy)-N-cyclopentylacetamide] | 7.48 | 4.95 |
| CC(=O)NCCOc1ccc(-c2nc3c(NC4CCN(C)CC4)c(Cl)cnc3[nH]2)cc1 [Example 265, N-[2-(4-{6-chloro-7-[(1-methylpiperidin-4-yl)amino]-3H-imidazo[4,5-b]pyridin-2-yl}phenoxy)ethyl] acetamide] | 6.59 | < 4.70 |
| CN1CCC(Nc2c(Cl)cnc3[nH]c(-c4ccc(OCCNC(=O)c5ccncc5)cc4)nc23)CC1 [Example 272, N-[2-(4-{6-chloro-7-[(1-methylpiperidin-4-yl)amino]-3H-imidazo[4,5-b]pyridin-2-yl}phenoxy)ethyl]pyridine-4-carboxamide] | 6.60 | < 4.70 |
| CNC(=O)COc1ccc(-c2nc3c(NC4CCN(Cc5c(C)nn(C)c5C)CC4)c(Br)cnc3[nH]2)cc1 [Example 288, 2-{4-[6-bromo-7-({1-[(1,3,5-trimethyl-1H-pyrazol-4-yl)methyl]piperidin-4-yl}amino)-3H-imidazo[4,5-b]pyridin-2-yl]phenoxy}-N-methylacetamide] | 6.40 | < 4.70 |
